# Where two headings read alike, the source gives them in different places.
# Legend:
# [1] = biological target: T1, interaction between GMPPNP-bound recombinant K-Ras4B G12C mutant protein and cRAF RAS-binding domain (cRAF-RBD) (Homo sapiens, UniProt P01116, G12C); assay: Inhibitory activity on interaction between KRAS G12C and cRAF (Alpha technology); conditions: Table 2-1
# T1 construct: His-tag (N)
# Procedure, shortened: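 Alpha signal measured 1.5 h after adding cRAF-RBD (aa 50-132) and detection reagents to GMPPNP-bound KRAS G12C (aa 1-169) pretreated 1 h at 25° C with compound (pH 7.5 buffer). 0% inhibition = DMSO, 100% = GDP-loaded KRAS; IC50 by curve fit.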
# MIA PaCa-2 cells = assay: Growth inhibition activity on KRAS-G12C mutant cell line (CellTiter-Glo 3D); assay type: cell-based, human; conditions: MIA PaCa-2, 3-day culture with compound, Table 3-1
# Procedure, shortened: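 IC50 (nM) derived from inhibition of luminescence (CellTiter-Glo 3D) relative to compound-free wells. Cells were seeded in U-bottom plates, grown 1 day, then exposed to compound for 3 days at 37 °C with 0.2% final DMSO.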
# [2] = GMPPNP-bound KRAS G12C incubated with compound 25° C. 1 hour, read-out: IC50
# [3] = IC50, GMPPNP-bound KRAS G12C incubated with compound 25° C. 1 hour
# T1 sequence (P01116 with tags, fused parts or gaps isoform P01116-2 G12C): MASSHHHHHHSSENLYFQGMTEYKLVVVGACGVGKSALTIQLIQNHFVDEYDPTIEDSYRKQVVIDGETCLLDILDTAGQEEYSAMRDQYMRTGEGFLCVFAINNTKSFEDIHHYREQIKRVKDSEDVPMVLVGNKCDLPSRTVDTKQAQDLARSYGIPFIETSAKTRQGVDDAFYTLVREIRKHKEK
SMILES,"IC50 [1, 2]","IC50 (MIA PaCa-2 cells; Homo sapiens, MIA PaCa-2, 72 h)","IC50 [1, 3]",IC50 (MIA PaCa-2 cells)
CO[C@H]1CC[C@H](NC/C=C/C(=O)Nc2c(F)cc(C(=O)c3cc4c5c(cccn35)-c3c(Cl)cc5c(nc(C)n5C)c3OCC4)cc2F)CC1 [Example 53],22.2 nM,31.9 nM,,
Cc1nc2c3c(c(C(F)(F)F)cc2n1C)-c1cccn2c(C(=O)c4cc(F)c(NC(=O)/C=C/CNC(C)(C)CF)c(F)c4)cc(c12)CCO3 [Example 56],12.4 nM,12.6 nM,,
"Cc1cc2c(nc(C)n2C)c2c1-c1cccn3c(C(=O)c4cc(F)c(NC(=O)/C=C/CNC5(C)CCOCC5)c(F)c4)cc(c13)CCN2C [Example 57, (E)-N-(2,6-difluoro-4-(7,9,10,12-tetramethyl-9,12,13,14-tetrahydro-imidazo[4″,5″:5′,6′]benzo-[1′,2′:2,3]azocino[4,5,6-hi]indolizine-2-carbonyl)-phenyl)-4-((4-methyltetra-hydro-2H-pyran-4-yl)-amino)but-2-enamide]",78.3 nM,68.5 nM,,
"Cc1c2c3c(cccn3c1C(=O)c1cc(F)c(NC(=O)/C=C/CNC3(C)COC3)c(F)c1)-c1c(C(F)(F)F)cc3c(nc(C)n3C)c1OCC2 [Example 58, (E)-N-(2,6-difluoro-4-(1,9,10-trimethyl-7-(tri-fluoromethyl)-13,14-dihydro-9H-imidazo-[4″,5″:5′,6′]benzo[1′,2′: 2,3]oxocino[4,5,6-hi]-indolizine-2-carbonyl)-phenyl)-4-((3-methyl-oxetan-3-yl)amino)but-2-enamide]",77.9 nM,70.2 nM,,
"CO[C@H]1CC[C@H](NC/C=C/C(=O)Nc2ccc(C(=O)c3cc4c5c(cccn35)-c3c(C(F)(F)F)cc5c(nc(C)n5C)c3OCC4)nc2)CC1 [Example 59, (E)-N-(6-(9,10-dimethyl-7-(trifluoromethyl)-13,14-dihydro-9H-imidazo-[4″,5″:5′,6′]benzo[1′,2′: 2,3]oxocino[4,5,6-hi]-indolizine-2-carbonyl)-pyridin-3-yl)-4-(((1r,4r)-4-methoxycyclohexyl)-amino)but-2-enamide]",27.6 nM,19.8 nM,,
"Cc1nc2c3c(c(C(F)(F)F)cc2n1C)-c1cccn2c(C(=O)c4ccc(NC(=O)/C=C/CNC5(C)COC5)cn4)cc(c12)CCO3 [Example 60, (E)-N-(6-(9,10-dimethyl-7-(trifluoromethyl)-13,14-dihydro-9H-imidazo-[4″,5″:5′,6′]benzo[1′,2′: 2,3]oxocino[4,5,6-hi]-indolizine-2-carbonyl)-pyridin-3-yl)-4-((3-meth-yloxetan-3-yl)amino)but-2-enamide]",73.2 nM,32.1 nM,,
"CN1CCn2cc(C(=O)c3cc(F)c(NC(=O)/C=C/CNC4(C)COC4)c(F)c3)c3cccc(c32)-c2c(C(F)(F)F)cc3c(ncn3C)c21 [Example 61, (E)-N-(4-(8,11-dimethyl-6-(trifluoromethyl)-8,11,12,13-tetrahydro-imidazo[4″,5″:5′,6′]benzo-[1′,2′:5,6][1,4]diazocino-[7,8,1-hi]indole-2-carbon-yl)-2,6-difluorophenyl)-4-((3-methyloxetan-3-yl)-amino)but-2-enamide]",,16.3 nM,76.3 nM,
"CCN1CCn2cc(C(=O)c3cc(F)c(NC(=O)/C=C/CN[C@H]4CC[C@H](OC)CC4)c(F)c3)c3cccc(c32)-c2c(C)cc3c(nc(C)n3C)c21 [Example 66, (E)-N-(4-(11-ethyl-6,8,9-trimethyl-8,11,12,13-tetra-hydroimidazo[4″,5″:5′,6′]-benzo[1′,2′:5,6][1,4]diazo-cino[7,8,1-hi]indole-2-carbonyl)-2,6-difluoro-phenyl)-4-(((1r,4r)-4-meth-oxycyclohexyl)amino)but-2-enamide]",,30.1 nM,53.4 nM,
"CO[C@H]1CC[C@H](NC/C=C/C(=O)Nc2ccc(C(=O)c3cc4c5c(cccn35)-c3c(C(F)(F)F)cc5c(nc(C)n5C)c3OCC4)cc2F)CC1 [Example 67, (E)-N-(4-(9,10-dimethyl-7-(trifluoromethyl)-13,14-dihydro-9H-imidazo-[4″,5″:5′,6′]benzo[1′,2′: 2,3]oxocino[4,5,6-hi]-indolizine-2-carbonyl)-2-fluorophenyl)-4-(((1r,4r)-4-methoxycyclohexyl)-amino)but-2-enamide]",22 nM,8.22 nM,,
"Cc1nc2c3c(c(C(F)(F)F)cc2n1C)-c1cccn2c(C(=O)c4ccc(NC(=O)/C=C/CNC5(C)COC5)c(F)c4)cc(c12)CCO3 [Example 68, (E)-N-(4-(9,10-dimethyl-7-(trifluoromethyl)-13,14-dihydro-9H-imidazo-[4″,5″:5′,6′]benzo[1′,2′: 2,3]oxocino[4,5,6-hi]-indolizine-2-carbonyl)-2-fluorophenyl)-4-((3-meth-yloxetan-3-yl)amino)but-2-enamide]",91.2 nM,16.4 nM,,
"CO[C@H]1CC[C@H](NC/C=C/C(=O)Nc2c(F)cc(C(=O)c3cn4c5c(cccc35)-c3c(C)cc5c(nc(C)n5C)c3N(C(C)=O)CC4)cc2F)CC1 [Example 72, (E)-N-(4-(11-acetyl-6,8,9-trimethyl-8,11,12,13-tetra-hydroimidazo[4″,5″: 5′,6′]benzo[1′,2′:2,3][1,4]-diazocino[7,8,1-hi]indole-2-carbonyl)-2,6-difluoro-phenyl)-4-(((1r,4r)-4-methoxycyclohexyl)-amino)but-2-enamide]",,1170 nM,97.8 nM,
"Cc1cc2c(nc(C)n2C)c2c1-c1cccc3c(C(=O)c4cc(F)c(NC(=O)/C=C/CNC56CCC(CC5)OC6)c(F)c4)cn(c13)CCN2C [Example 73, (E)-4-((2-oxabicyclo-[2.2.2]octan-4-yl)amino)-N-(2,6-difluoro-4-(6,8,9,11-tetramethyl-8,11,12,13-tetrahydro-imidazo[4″,5″:5′,6′]-benzo[1′,2′:5,6][1,4]-diazocino[7,8,1-hi]indole-2-carbonyl)phenyl)but-2-enamide]",,,46.9 nM,21.6 nM
"CO[C@H]1CC[C@H](NC/C=C/C(=O)Nc2c(F)cc(C(=O)c3cc4c5c(cccn35)-c3c(C(F)(F)F)cc5c(ncn5C)c3N(C)CC4)cc2F)CC1 [Example 74, (E)-N-(4-(9,12-dimethyl-7-(trifluoromethyl)-9,12,13,14-tetrahydro-imidazo[4″,5″:5′,6′]benzo-[1′,2′:2,3]azocino[4,5,6-hi]indolizine-2-carbonyl)-2,6-difluorophenyl)-4-(((1r,4r)-4-methoxycyclo-hexyl)amino)but-2-en-amide]",33.3 nM,8.22 nM,,
"CO[C@H]1CC[C@H](NC/C=C/C(=O)Nc2c(F)cc(C(=O)c3cn4c5c(cccc35)-c3c(C(F)(F)F)cc5c(nc(C)n5C)c3N(C)C(=O)C4)cc2F)CC1 [Example 76, (E)-N-(2,6-difluoro-4-(8,9,11-trimethyl-12-oxo-6-(trifluoromethyl)-8,11,12,13-tetrahydro-imidazo[4″,5″:5′,6′]benzo-[1′,2′:5,6][1,4]diazocino-[7,8,1-hi]indole-2-carbon-yl)phenyl)-4-(((1r,4r)-4-methoxycyclohexyl)-amino)but-2-enamide]",,7.14 nM,22.2 nM,
Cc1nc2c3c(c(C(F)(F)F)cc2n1C)-c1cccc2c(C(=O)c4cc(F)c(NC(=O)/C=C/CNC5(C)COC5)c(F)c4)cn(c12)CC(=O)N3C [Example 77],,54 nM,80.4 nM,
"COc1cc2c(nc(C)n2C)c2c1-c1cccn3c(C(=O)c4cc(F)c(NC(=O)/C=C/CN[C@H]5CC[C@H](OC)CC5)c(F)c4)cc(c13)CCN2C [Example 78, (E)-N-(2,6-difluoro-4-(7-methoxy-9,10,12-tri-methyl-9,12,13,14-tetra-hydroimidazo[4″,5″:5′,6′]-benzo[1′,2′:2,3]azocino-[4,5,6-hi]indolizine-2-carbonyl)phenyl)-4-(((1r,4r)-4-methoxycyclo-hexyl)amino)but-2-en-amide]",33.7 nM,6.92 nM,,
"COc1cc2c(nc(C)n2C)c2c1-c1cccn3c(C(=O)c4cc(F)c(NC(=O)/C=C/CNC(C)(C)C)c(F)c4)cc(c13)CCN2C [Example 79, (E)-4-(tert-butylamino)-N-(2,6-difluoro-4-(7-methoxy-9,10,12-trimeth-yl-9,12,13,14-tetrahydro-imidazo[4″,5″:5′,6′]benzo-[1′,2′:2,3]azocino[4,5,6-hi]indolizine-2-carbonyl)-phenyl)but-2-enamide]",32.8 nM,10.6 nM,,
"Cn1cnc2c3c(c(C(F)(F)F)cc21)-c1cccc2c(C(=O)c4cc(F)c(NC(=O)/C=C/CNC5(C)COC5)c(F)c4)cn(c12)CCO3 [Example 80, (E)-N-(2,6-difluoro-4-(8-methyl-6-(trifluorometh-yl)-12,13-dihydro-8H-imidazo[4″,5″:3′,4′]benzo-[1′,2′:7,8][1,4]oxazocino-[6,5,4-hi]indole-2-carbon-yl)phenyl)-4-((3-methyl-oxetan-3-yl)amino)but-2-enamide]",,22.2 nM,28.3 nM,
"CN1CCn2cc(C(=O)c3cc(F)c(NC(=O)/C=C/CNC(C)(C)CF)c(F)c3)c3cccc(c32)-c2c(C(F)(F)F)cc3c(ncn3C)c21 [Example 81, (E)-N-(4-(8,11-dimethyl-6-(trifluoromethyl)-8,11,12,13-tetrahydro-imidazo[4″,5″:5′,6′]benzo-[1′,2′:5,6][1,4]diazocino-[7,8,1-hi]indole-2-carbon-yl)-2,6-difluorophenyl)-4-((1-fluoro-2-methyl-propan-2-yl)amino)but-2-enamide]",,33.4 nM,20.8 nM,

# From patent US20240262842A1, “SMALL MOLECULE INHIBITORS OF KRAS G12C MUTANT” (Merck Sharp & Dohme LLC, priority 2021, published 2024)
